ChEMBL document CHEMBL4251696, “Discovery of a Stress-Activated Protein Kinase Inhibitor for Lymphatic Filariasis” (ACS Med Chem Lett, 2018)
Active and inactive are the calls of the source. The calls are words filed in the database; no cut-off is given here.

Experiments:
Brugia malayi [1] = test: Inhibition of recombinant Brugia malayi MPK1a at 1 uM using FAM-p38tide as substrate by IMAP assay relative to control
[2] = Inhibition of sodium arsenate activated N-terminal GST-tagged Brugia malayi MPK1 expressed in HEK293F cells using FAM-p38tide as substrate by IMAP assay
[3] = Inhibition of recombinant Brugia malayi MPK1a using FAM-p38tide as substrate by IMAP assay
[4] = Stability in mouse microsomes assessed as parent compound remaining after 1 hr; type: ADME, Microsome; settings: read-out: Stability
[5] = Cmax in mouse at 30 mg/kg, po; type: ADME, organism-based; design: dose 30 mg/kg, route oral; settings: in vivo
[6] = Protein binding in mouse plasma; type: ADME, cell-free; settings: read-out: PPB (converted)
[7] = Stability in human microsomes assessed as parent compound remaining after 1 hr; type: ADME, Microsome; settings: read-out: Stability
[8] = target: Mitogen-activated protein kinase 10 (Homo sapiens) (UniProt P53779); test: Inhibition of human JNK3 FAM-EGFR-derived peptide as substrate by IMAP assay
Chain of Mitogen-activated protein kinase 10 (Homo sapiens) (P53779 whole entry, looked up): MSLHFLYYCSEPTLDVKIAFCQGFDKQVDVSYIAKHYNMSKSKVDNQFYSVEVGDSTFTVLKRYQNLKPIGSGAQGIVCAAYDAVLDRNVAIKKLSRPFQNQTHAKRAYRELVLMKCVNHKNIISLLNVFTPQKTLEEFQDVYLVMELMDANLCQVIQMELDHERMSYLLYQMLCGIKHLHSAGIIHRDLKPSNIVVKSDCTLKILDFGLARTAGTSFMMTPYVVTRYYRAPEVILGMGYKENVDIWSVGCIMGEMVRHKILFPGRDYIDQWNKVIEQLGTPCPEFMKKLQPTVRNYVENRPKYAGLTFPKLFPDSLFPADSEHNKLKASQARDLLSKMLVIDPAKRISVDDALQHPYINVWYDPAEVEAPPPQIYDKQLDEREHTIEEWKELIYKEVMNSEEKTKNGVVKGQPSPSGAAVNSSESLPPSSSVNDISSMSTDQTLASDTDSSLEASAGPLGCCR

[9] = target: Mitogen-activated protein kinase 14 (Homo sapiens, UniProt Q16539); test: Inhibition of human p38alpha using FAM-p38tide as substrate by IMAP assay
Chain of Mitogen-activated protein kinase 14 (Q16539 whole entry): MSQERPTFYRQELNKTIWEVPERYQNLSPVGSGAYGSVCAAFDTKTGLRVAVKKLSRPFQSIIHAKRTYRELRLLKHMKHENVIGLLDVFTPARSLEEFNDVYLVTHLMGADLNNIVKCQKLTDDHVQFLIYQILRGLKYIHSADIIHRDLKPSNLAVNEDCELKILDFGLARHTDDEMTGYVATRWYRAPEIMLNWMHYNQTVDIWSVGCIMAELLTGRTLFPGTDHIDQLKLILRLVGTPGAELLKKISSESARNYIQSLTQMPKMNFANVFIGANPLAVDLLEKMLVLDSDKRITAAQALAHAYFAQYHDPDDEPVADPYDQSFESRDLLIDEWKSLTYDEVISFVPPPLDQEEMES

CYP3A4 = CYP3A4 (Homo sapiens, UniProt P08684); test: Inhibition of CYP3A4 (unknown origin) at 5 uM relative to control; type: ADME
Chain of CYP3A4 (P08684 whole entry): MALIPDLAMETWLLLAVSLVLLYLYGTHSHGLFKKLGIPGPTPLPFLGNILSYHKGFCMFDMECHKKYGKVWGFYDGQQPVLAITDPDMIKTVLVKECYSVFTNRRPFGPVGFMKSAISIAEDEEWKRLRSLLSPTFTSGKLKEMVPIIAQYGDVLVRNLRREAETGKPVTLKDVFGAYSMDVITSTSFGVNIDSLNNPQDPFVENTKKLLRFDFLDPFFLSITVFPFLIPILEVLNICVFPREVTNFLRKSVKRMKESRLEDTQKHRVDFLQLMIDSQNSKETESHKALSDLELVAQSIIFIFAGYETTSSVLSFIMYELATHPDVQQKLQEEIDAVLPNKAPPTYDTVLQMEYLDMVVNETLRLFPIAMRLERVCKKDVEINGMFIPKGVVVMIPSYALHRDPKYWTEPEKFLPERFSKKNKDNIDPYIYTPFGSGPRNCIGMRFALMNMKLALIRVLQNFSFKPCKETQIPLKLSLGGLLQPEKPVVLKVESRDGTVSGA

CYP2C19 = CYP2C19 (Homo sapiens, UniProt P33261); test: Inhibition of CYP2C19 (unknown origin) at 5 uM relative to control; type: ADME
Chain of CYP2C19 (P33261 whole entry): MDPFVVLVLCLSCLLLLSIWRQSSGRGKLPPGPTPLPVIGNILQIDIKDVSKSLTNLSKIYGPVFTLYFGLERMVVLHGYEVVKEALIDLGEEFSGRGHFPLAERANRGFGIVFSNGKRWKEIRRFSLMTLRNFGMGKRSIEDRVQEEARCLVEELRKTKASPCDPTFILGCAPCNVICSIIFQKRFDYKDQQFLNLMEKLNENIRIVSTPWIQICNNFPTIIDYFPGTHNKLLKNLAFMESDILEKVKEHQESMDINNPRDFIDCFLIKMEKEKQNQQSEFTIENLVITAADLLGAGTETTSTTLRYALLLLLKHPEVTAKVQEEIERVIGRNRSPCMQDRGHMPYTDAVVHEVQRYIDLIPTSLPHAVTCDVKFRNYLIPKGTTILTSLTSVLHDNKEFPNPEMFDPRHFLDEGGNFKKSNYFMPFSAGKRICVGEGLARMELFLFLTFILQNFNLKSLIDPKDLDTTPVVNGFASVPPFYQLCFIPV

CYP1A2 = target: T1, CYP1A2 (Homo sapiens, UniProt P05177); test: Inhibition of CYP1A2 (unknown origin) at 5 uM relative to control; type: ADME
T1 sequence (P05177 whole entry): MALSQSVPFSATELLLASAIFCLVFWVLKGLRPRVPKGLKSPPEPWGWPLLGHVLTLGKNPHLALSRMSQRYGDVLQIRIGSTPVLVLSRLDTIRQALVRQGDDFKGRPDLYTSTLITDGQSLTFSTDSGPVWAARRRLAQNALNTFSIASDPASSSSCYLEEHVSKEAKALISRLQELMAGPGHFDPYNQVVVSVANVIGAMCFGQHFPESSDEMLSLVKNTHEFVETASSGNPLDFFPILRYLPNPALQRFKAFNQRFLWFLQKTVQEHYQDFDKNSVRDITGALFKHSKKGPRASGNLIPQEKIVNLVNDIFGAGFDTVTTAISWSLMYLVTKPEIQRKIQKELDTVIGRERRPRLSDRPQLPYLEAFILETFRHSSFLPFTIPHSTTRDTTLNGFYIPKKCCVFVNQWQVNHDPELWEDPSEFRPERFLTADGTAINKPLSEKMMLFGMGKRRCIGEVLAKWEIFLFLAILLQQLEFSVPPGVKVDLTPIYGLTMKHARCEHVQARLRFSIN

Brugia malayi [10] = test: Antifilarial activity against Brugia malayi microfilaria assessed as increase in copper-induced reduction in parasite motility at 0.1 to 1 uM measured daily for 5 days; type: functional, organism-based
CYP2D6 = CYP2D6 (Homo sapiens, UniProt P10635); test: Inhibition of CYP2D6 (unknown origin) at 5 uM relative to control; type: ADME
Chain of CYP2D6 (P10635 whole entry): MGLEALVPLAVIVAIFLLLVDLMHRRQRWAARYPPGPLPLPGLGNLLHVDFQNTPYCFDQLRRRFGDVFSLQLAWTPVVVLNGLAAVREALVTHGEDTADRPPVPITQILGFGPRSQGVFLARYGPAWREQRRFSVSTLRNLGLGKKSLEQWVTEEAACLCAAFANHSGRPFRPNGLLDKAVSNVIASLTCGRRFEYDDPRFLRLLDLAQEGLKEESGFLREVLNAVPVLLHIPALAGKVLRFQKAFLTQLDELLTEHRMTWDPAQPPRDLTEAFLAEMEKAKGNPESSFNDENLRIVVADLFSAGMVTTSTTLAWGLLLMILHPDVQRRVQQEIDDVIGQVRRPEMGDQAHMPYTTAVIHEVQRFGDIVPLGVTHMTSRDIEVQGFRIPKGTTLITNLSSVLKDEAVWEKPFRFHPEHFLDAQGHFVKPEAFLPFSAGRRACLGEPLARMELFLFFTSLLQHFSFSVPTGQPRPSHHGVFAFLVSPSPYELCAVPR

[11] = AUC in mouse at 30 mg/kg, po; type: ADME, organism-based; settings: in vivo
CYP2C9 = CYP2C9 (Homo sapiens, UniProt P11712); test: Inhibition of CYP2C9 (unknown origin) at 5 uM relative to control; type: ADME
Chain of CYP2C9 (P11712 whole entry): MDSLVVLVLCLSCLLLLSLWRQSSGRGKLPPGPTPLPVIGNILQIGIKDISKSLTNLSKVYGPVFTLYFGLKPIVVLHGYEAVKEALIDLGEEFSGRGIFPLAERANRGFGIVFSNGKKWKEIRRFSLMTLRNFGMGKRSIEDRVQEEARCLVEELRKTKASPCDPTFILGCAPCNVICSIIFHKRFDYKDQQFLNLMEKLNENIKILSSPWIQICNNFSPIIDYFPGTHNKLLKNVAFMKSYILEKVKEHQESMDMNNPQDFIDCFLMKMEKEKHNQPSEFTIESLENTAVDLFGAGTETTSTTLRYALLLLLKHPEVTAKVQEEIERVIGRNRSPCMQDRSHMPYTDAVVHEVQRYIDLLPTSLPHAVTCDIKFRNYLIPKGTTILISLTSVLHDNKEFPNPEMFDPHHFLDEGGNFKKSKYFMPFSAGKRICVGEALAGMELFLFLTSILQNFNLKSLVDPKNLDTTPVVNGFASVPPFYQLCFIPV

Brugia malayi [12] = test: Antifilarial activity against adult Brugia malayi assessed as increase in copper-induced reduction in parasite motility at 0.1 to 1 uM measured daily for 5 days; type: functional, organism-based
[13] = Ratio of unbound Cmax in mouse at 30 mg/kg, po to IC50 for Brugia malayi MPK1a; type: ADME, organism-based; settings: in vivo
[14] = Tmax in mouse at 30 mg/kg, po; type: ADME, organism-based; settings: in vivo
Mus musculus = test: Time at which plasma concentration stays above in vitro IC50 for Brugia malayi MPK1a in mouse at 30 mg/kg, po; type: ADME, organism-based; settings: in vivo

| inhibition (Brugia malayi [1]) | IC50 [3] | SMILES | also measured |
| --- | --- | --- | --- |
| 12% |  | Cc1onc(-c2ccccc2)c1-c1ccnc(N[C@@H]2CCN(C(=O)c3ccccc3)C2)n1 |  |
| 3% |  | CC(=O)N1CC[C@@H](Nc2nccc(-c3c(-c4cccnc4)noc3C)n2)C1 |  |
|  |  | Cc1ccc(-n2nc(C(C)(C)C)cc2NC(=O)Nc2ccc(OCCN3CCOCC3)c3ccccc23)cc1 [DORAMAPIMOD] | IC50 [2]: 140 nM |
| 0% |  | Cc1onc(-c2ccccc2)c1-c1ccnc(NC2CCN(C(=O)OC(C)(C)C)CC2)n1 |  |
| 90% | 94 nM | Cc1onc(-c2ccccc2)c1-c1ccnc(N[C@H]2CC[C@@H](NC(=O)OC(C)(C)C)CC2)n1 |  |
| 83% | 200 nM | Cc1onc(-c2ccccc2)c1-c1ccnc(N[C@H]2CC[C@H](NC(=O)OC(C)(C)C)CC2)n1 |  |
| 87% | 130 nM | CC(=O)N1CC[C@@H](Nc2nccc(-c3c(-c4ccccc4)noc3C)n2)C1 |  |
| 45% |  | Cc1onc(-c2ccccc2)c1-c1ccnc(NC2CCCN(C(=O)OC(C)(C)C)C2)n1 (racemic) |  |
| 93% | 24 nM | CC(=O)N[C@H]1CC[C@H](Nc2nccc(-c3c(-c4ccccc4)noc3C)n2)CC1 | remaining at 1 h [4]: 89%; Cmax [5]: 2960 nM; fraction unbound [6]: 0.08; remaining at 1 h [7]: 89%; IC50 [8]: 170 nM; IC50 [9]: 26 nM; inhibition at 5 µM (CYP3A4): 51%; inhibition at 5 µM (CYP2C19): 76%; inhibition at 5 µM (CYP1A2): 29%; Activity (Brugia malayi [10]): Active; inhibition at 5 µM (CYP2D6): 32%; AUC [11]: 5.3 µM·h; inhibition at 5 µM (CYP2C9): 59%; Activity (Brugia malayi [12]): Active; Ratio [13]: 10; Tmax [14]: 30 min; Time (Mus musculus): 8 h |
| 0% |  | Cc1onc(-c2ccccc2)c1-c1ccnc(NCCNC(=O)OC(C)(C)C)n1 |  |
| 44% |  | Cc1onc(-c2ccccc2)c1-c1ccnc(N[C@@H]2CCN(S(=O)(=O)c3ccccc3)C2)n1 |  |
| 91% | 94 nM | CC(=O)N[C@H]1CC[C@@H](Nc2nccc(-c3c(-c4ccccc4)noc3C)n2)CC1 |  |
| 28% |  | CC(=O)N1CC[C@@H](Nc2nccc(-c3c(-c4ccccc4)noc3C(F)(F)F)n2)C1 |  |
|  |  | C[S+]([O-])c1ccc(-c2nc(-c3ccc(F)cc3)c(-c3ccncc3)[nH]2)cc1 (stereo unspecified) [SB-203580] | IC50 [2]: 220 nM |
| 0% | 360 nM | Cc1onc(-c2ccccc2)c1-c1ccnc(N[C@H]2CCN(C(=O)OC(C)(C)C)C2)n1 |  |
|  |  | OCCC#Cc1nc(-c2ccc(F)cc2)c(-c2ccncc2)n1CCCc1ccccc1 [RWJ-67657] | IC50 [2]: 120 nM |
| 64% | 700 nM | Cc1onc(-c2ccccc2)c1-c1ccnc(N[C@@H]2CCNC2)n1 |  |
| 78% |  | Cc1onc(-c2ccccc2)c1-c1ccnc(N[C@@H]2CCN(C(=O)OC(C)(C)C)C2)n1 |  |
| 70% | 520 nM | Cc1onc(-c2ccccc2)c1-c1ccnc(N[C@@H]2CCN(S(C)(=O)=O)C2)n1 |  |
| 7% |  | CC(=O)N1CC[C@@H](Nc2nccc(-c3c(-c4ccccn4)noc3C)n2)C1 |  |
| 45% |  | Cc1onc(-c2ccccc2)c1-c1ccnc(NCCCNC(=O)OC(C)(C)C)n1 |  |
